Each molecule was assayed against T1, human B1R (Homo sapiens, UniProt P46663) (assay: FLIPR calcium ion flux assay, inhibitory activity against human B1R). Details: HEK293 cells stably expressing human B1R; agonist [Lys-des-Arg9]-Bradykinin 4.6 nM (EC80); FLIPR method.
T1 construct: host or cells: HEK293
T1 sequence (P46663 1-353): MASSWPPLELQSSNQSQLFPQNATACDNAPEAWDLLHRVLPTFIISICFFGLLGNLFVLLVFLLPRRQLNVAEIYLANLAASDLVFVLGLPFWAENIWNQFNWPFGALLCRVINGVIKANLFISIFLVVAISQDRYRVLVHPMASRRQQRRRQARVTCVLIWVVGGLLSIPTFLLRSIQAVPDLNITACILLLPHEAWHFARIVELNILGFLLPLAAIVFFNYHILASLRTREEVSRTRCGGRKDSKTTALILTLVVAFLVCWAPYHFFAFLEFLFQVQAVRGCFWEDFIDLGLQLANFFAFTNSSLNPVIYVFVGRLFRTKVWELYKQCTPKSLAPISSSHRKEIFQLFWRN
Type: cell-based
Description: The inhibitory activity of the compounds against human B1R and B2R channels was determined by calcium ion flux assay using fluorometric imaging plate reader (FLIPR method). See literatures of Lee, Chen et al. for the method. [Lee et al. 2008][Chen et al. 2011]
1. Cell culture: HEK293 recombinant cell lines (WuXi AppTec, Shanghai, China) stably expressing human B1R and B2R were cultured in DMEM (Invitrogen, Cat #11965) medium containing 10% calf serum (Excellbio, Cat #FSP500), 5 μg/ml Geneticin (Invitrogen, Cat #10131) and Penicillin/Streptomycin (Invitrogen, Cat #15140). The incubator conditions were 37° C. and ambient humidity containing 5% CO2.
2. Preparation of the cell assay plate: B1R and B2R cells were seeded in a 384-well assay plate (Greiner, Cat #781090) at a density of 20,000 cells per well (20 μl/well), and cultured overnight at 37° C. in an incubator with 5% CO2. The next day, Fluo-4 Direct™ Loading Buffer (containing 5 mM Probenicid) containing 2× (8 μM) Fluo-4 Direct (Invitrogen, Cat #F10471) was added to each of the wells. The cells were cultured at 37° C. for 50 min, and then culture for at the room temperature 10 min.
3. Preparation of the compound assay plate: The compound was dissolved in 100% DMSO to make a 30 mM stock solution and stored at −20° C. On the day of use, the stock solution of the compound was thawed at the room temperature. Each of the compounds was serially diluted at 1:5 in DMSO culture medium with a starting concentration of 30 μM for 9 concentration points on a 384-well plate. Each of compounds was diluted in duplicate for testing. [Des-Arg10]-HOE140 was used as a positive control compound, and diluted in the same manner with a starting concentration of 3 μM.
4. FLIPR assay: The cell assay plate was placed in a FLIPR instrument ([…]). The compounds in the compound assay plate were added to the corresponding wells on the cell assay plate (10 μL/well) using an automatic program. The calcium ion fluorescence signal was recorded to determine whether the compound may have agonist activity. After 10 minutes, a B1R agonist [Lys-des-Arg9]-Bradykinin2 (10 μL/well) with a final concentration of 4.6 nM (EC80) was added to each of the wells to stimulate the generation of intracellular calcium ion flux signals. The Ca^++-dependent fluorescence signal was continuously monitored at a wavelength of 538 nm to analyze the inhibitory activity of the compound.
5. Data analysis: The data was collected and analyzed by a FLIPR program. The inhibitory (or agonist) activity of the compound at each concentration was evaluated by the fluorescence peak. The IC50 values of the compounds were calculated using EXCEL and PRISM programs.

Structure (SMILES) | IC50
COc1ccc(Oc2ccc(NC(=O)N[C@H]3CC[C@@H](C)CC3)cc2-c2nn[nH]n2)cc1OC [Compound 63, 1-(4-(3,4-dimethoxyphenoxy)-3-(2H-tetrazol-5-yl)phenyl)-3-((cis)-4-methylcyclohexyl)urea] | 7710 nM
COc1ccc(-c2c(F)cc(NC(=O)N3CCC(C(C)(C)C)CC3)cc2-c2nn[nH]n2)cc1Cl [Compound 33, 4-(tert-butyl)-N-(3′-chloro-2-fluoro-4′-methoxy-6-(2H-tetrazol-5-yl)-[1,1′-biphenyl]-4-yl)piperidine-1-carboxamide] | 14.6 nM
CC(C)(C)C1CCN(C(=O)Nc2ccc(C3CCOCC3)c(-c3nn[nH]n3)c2)CC1 [Compound 40, 4-(tert-butyl)-N-(4-(tetrahydro-2H-pyran-4-yl)-3-(2H-tetrazol-5-yl)phenyl)piperidine-1-carboxamide] | 2040 nM
CC(C)(C)C1CCN(C(=O)Nc2cc(F)c(C(=O)NC3CCCC3)c(-c3nn[nH]n3)c2)CC1 [Compound 53, 4-(tert-butyl)-N-(4-(cyclopentylaminoformyl)-3-fluoro-5-(2H-tetrazol-5-yl)phenyl)piperidine-1-carboxamide] | 48.1 nM
CC1CCN(C(=O)Nc2cc(F)c(C(=O)OC3CCCCC3)c(-c3nn[nH]n3)c2)CC1 [Compound 23, cyclohexyl 2-fluoro-4-(4-methylpiperidine-1-formamido)-6-(2H-tetrazol-5-yl)benzoate] | 44.6 nM
C[C@H]1CC[C@H](NC(=O)Nc2ccc(C3=CCOCC3)c(-c3nn[nH]n3)c2)CC1 [Compound 66, 1-(4-(3,6-dihydro-2H-pyran-4-yl)-3-(2H-tetrazol-5-yl)phenyl)-3-((trans)-4-methylcyclohexyl)urea] | 1650 nM
CCOc1ccc(-c2c(F)cc(NC(=O)N3CCC(C)CC3)cc2-c2nn[nH]n2)cn1 [Compound 31, N-(4-(6-ethoxypyrid-3-yl)-3-fluoro-5-(2H-tetrazol-5-yl)phenyl)-4-methylpiperidine-1-carboxamide] | 19.2 nM
CC(C)(C)C1CCN(C(=O)Nc2cc(F)c(C(=O)OC3CCCCC3)c(-c3nn[nH]n3)c2)CC1 [Compound 17, cyclohexyl 4-(4-(tert-butyl)piperidine-1-formamido)-2-fluoro-6-(2H-tetrazol-5-yl)benzoate] | 29.6 nM
COc1ccc(-c2ccc(NC(=O)N3CCC(C)(C)CC3)cc2-c2nn[nH]n2)cc1OC [Compound 12, N-(3′,4′-dimethoxy-2-(2H-tetrazol-5-yl)-[1,1′-biphenyl]-4-yl)-4,4-dimethylpiperidine-1-carboxamide] | 148 nM
C[C@H]1CC[C@@H](NC(=O)Nc2ccc(OC3CCOCC3)c(-c3nn[nH]n3)c2)CC1 [Compound 72] | 12000 nM
CC(C)(C)C1CCN(C(=O)Nc2cc(F)c(-c3ccc(C(F)(F)F)nc3)c(-c3nn[nH]n3)c2)CC1 [Compound 18, 4-(tert-butyl)-N-(3-fluoro-5-(2H-tetrazol-5-yl)-4-(6-(trifluoromethyl)pyrid-3-yl)phenyl)piperidine-1-carboxamide] | 9.9 nM
CCOC(=O)c1ccc(NC(=O)N2CCC(C(F)(F)F)CC2)cc1-c1nn[nH]n1 [Compound 30] | 35.4 nM
O=C(OC1CCCCC1)c1c(F)cc(NC(=O)N2CCC(C(F)(F)F)CC2)cc1-c1nn[nH]n1 [Compound 29, cyclohexyl 2-fluoro-6-(2H-tetrazol-5-yl)-4-(4-(trifluoromethyl)piperidine-1-formamido)benzoate] | 34.6 nM
C[C@H]1CC[C@@H](NC(=O)Nc2ccc(C3CCOCC3)c(-c3nn[nH]n3)c2)CC1 [Compound 67, 1-((cis)-4-methylcyclohexyl)-3-(4-(tetrahydro-2H-pyran-4-yl)-3-(2H-tetrazol-5-yl)phenyl)urea] | 13300 nM
COc1ccc(-c2ccc(NC(=O)N3CCC4(CCCO4)CC3)cc2-c2nn[nH]n2)cc1OC [Compound 3, N-(3′,4′-dimethoxy-2-(2H-tetrazol-5-yl)-[1,1′-biphenyl]-4-yl)-1-oxy-8-azaspiro[4.5]decane-1-carboxamide] | 1330 nM
Cn1ncc2cc(-c3c(F)cc(NC(=O)N4CCC(C(C)(C)C)CC4)cc3-c3nn[nH]n3)ccc21 [Compound 32, 4-(tert-butyl)-N-(3-fluoro-4-(1-methyl-1H-indazol-5-yl)-5-(2H-tetrazol-5-yl)phenyl)piperidine-1-carboxamide] | 14.2 nM
COc1ccc(-c2ccc(NS(=O)(=O)N3CCC(C)CC3)cc2-c2nn[nH]n2)cc1OC [Compound 19, N-(3′,4′-dimethoxy-2-(2H-tetrazol-5-yl)-[1,1′-biphenyl]-4-yl)-4-methylpiperidine-1-sulfamide] | 1140 nM

Next, values leading:

IC50 | Structure (SMILES)
45.9 nM | CC(C)(C)C1CCN(C(=O)Nc2ccc(-c3cnn(C4CCC4)c3)c(-c3nn[nH]n3)c2)CC1 [Compound 9, 4-(tert-butyl)-N-(4-(1-cyclobutyl-1H-pyrazol-4-yl)-3-(2H-tetrazol-5-yl)phenyl) piperidine-1-carboxamide]
40 nM | COc1ccc(-c2ccc(NC(=O)N3CCC(C(C)(C)C)CC3)cc2-c2nn[nH]n2)cc1OC [Compound 1, 4-(tert-butyl)-N-(3′,4′-dimethoxy-2-(2H-tetrazol-5-yl)-[1,1′-biphenyl]-4-yl)piperidine-1-carboxamide]
34.9 nM | Cc1cc(-c2ccc(NC(=O)N3CCC(C(C)(C)C)CC3)cc2-c2nn[nH]n2)ccn1 [Compound 52, 4-(tert-butyl)-N-(4-(2-methylpyridin-4-yl)-3-(2H-tetrazol-5-yl)phenyl)piperidine-1-carboxamide]
72.7 nM | CCOC(=O)c1ncc(NC(=O)N2CCC(C(C)(C)C)CC2)cc1-c1nn[nH]n1 [Compound 37, ethyl 5-(4-(tert-butyl)piperidine-1-formamido)-3-(2H-tetrazol-5-yl)pyridylcarboxylate]
93.9 nM | Cc1ccc(NC(=O)c2ccc(NC(=O)N3CCC(C(C)(C)C)CC3)cc2-c2nn[nH]n2)nc1 [Compound 47, 4-(tert-butyl)-N-(4-((5-methylpyridin-2-yl)aminoformyl)-3-(2H-tetrazol-5-yl)phenyl)piperidine-1-carboxamide]
8.9 nM | Cc1ccc(-c2c(F)cc(NC(=O)N3CCC(C(C)(C)C)CC3)cc2-c2nn[nH]n2)cn1 [Compound 55, 4-(tert-butyl)-N-(3-fluoro-4-(6-methylpyrid-3-yl)-5-(2H-tetrazol-5-yl)phenyl)piperidine-1-carboxamide]
372 nM | COc1cncc(-c2ccc(NC(=O)N3CCC(C(C)(C)C)CC3)cc2-c2nn[nH]n2)c1 [Compound 48, 4-(tert-butyl)-N-(4-(5-methoxypyrid-3-yl)-3-(2H-tetrazol-5-yl)phenyl)piperidine-1-carboxamide]
48.3 nM | Cn1ncc2cc(-c3ncc(NC(=O)N4CCC(C(C)(C)C)CC4)cc3-c3nn[nH]n3)ccc21 [Compound 36, 4-(tert-butyl)-N-(6-(1-methyl-1H-indazol-5-yl)-5-(2H-tetrazol-5-yl)pyrid-3-yl)piperidine-1-carboxamide]
39.8 nM | CC(C)(C)C1CCN(C(=O)Nc2ccc(C(=O)OC3CCCCC3)c(-c3nn[nH]n3)c2)CC1 [Compound 15, cyclohexyl 4-(4-(tert-butyl)piperidine-1-formamido)-2-(2H-tetrazol-5-yl)benzoate]
18.3 nM | Cn1ncc2cc(-c3ccc(NC(=O)N4CCC(C(C)(C)C)CC4)cc3-c3nn[nH]n3)ccc21 [Compound 10, 4-(tert-butyl)-N-(4-(1-methyl-1H-indazol-5-yl)-3-(2H-tetrazol-5-yl)phenyl)piperidine-1-carboxamide]
74.6 nM | CC(C)(C)C1CCN(C(=O)Nc2ccc(C(=O)NC3CCCC3)c(-c3nn[nH]n3)c2)CC1 [Compound 46, 4-(tert-butyl)-N-(4-(cyclopentylaminoformyl)-3-(2H-tetrazol-5-yl)phenyl)piperidine-1-carboxamide]

Source: patent US20250353835A1, “N-TETRAZOLYL ARYL UREA-BASED DERIVATIVES, PREPARATION METHOD THEREFOR, AND USE THEREOF” (Hangzhou Yirui Pharmaceutical Technology Co., Ltd, priority 2022, published 2025)
